Source: US20080213236A1, “Natural Remedy-Dietary Supplement Combination Product” (priority 2005, published 2008)

Assays:
[1] = single substance; cited from earlier work
[2] = tested on: patients with rheumatoid arthritis; assay: Treatment of rheumatoid arthritis patients with the individual substances or extracts A-F; type: in vivo, human; settings: for alleviation/reduction of joint pain / improvement in joint sensitivity: after two weeks; for Result of treatment, scale of 1-10: individual substance, scale from 1 (scarcely any alleviation of symptoms) to 10 (complete elimination of symptoms)
Experimental: All the abovementioned active ingredients or medicinal plant extracts A-F were tested singly in the treatment of rheumatoid arthritis. The following products and daily doses were used for this: A. Omega-3 fatty acids: 8 capsules of Ameu® 500 mg. One capsule of Ameu contains 500 mg of fish body oil (fatty oil from […] comprises 70 mg of eicosapentaenoic acid and 50 mg of docosahexaenoic acid (total 120 mg of omega-3 fatty acids). B. α-Tocopherol (vitamin E): 800 to 1000 I.U. once a day. C. Ascorbic acid (vitamin C): 3 g in three 1000 mg doses. D. Selenium: 300 μg of selenium as sodium selenite 5H2O ([…]® or […]®) once a day. E. Harpagophytum: 2×480 mg of dry extract once a day (extractant: ethanol 60% (V/V) (BIOCUR Arzneimittel GmbH). F. Boswellia serrata: 3×400 mg of dry extract once a day (H 15 Gufic tablets (Gufic Chem, India)). […] A positive rheumatoid factor was not obligatory. All the treated patients had elevated C-reactive protein and frequently raised ferritin as signs of inflammation. Bacterial and parasitic causes, and allergies (including yersinia, staphylococci, streptococci, mycoplasma, Whipple's disease, borreliosis and gluten allergies) were excluded. […] All the patients had discontinued their previous medication (morphine, ibuprofen, cortisol, etc.) at least one week before starting the treatment, or had received no medical therapy over a prolonged period because of toxic side effects of other medicaments. The results of treatment were classified on a scale of from 1 (scarcely any alleviation of symptoms) to 10 (complete elimination of symptoms).

[3] = tested on: rheumatoid arthritis; settings: vitamin E alone, 1200 mg/day, without influencing the immune markers; cited from earlier work

C[C@]1(OC(=O)/C=C/c2ccccc2)C[C@@H](O)[C@]2(O)C=CO[C@@H](O[C@@H]3O[C@H](CO)[C@@H](O)[C@H](O)[C@H]3O)[C@@H]21 [Harpagoside]
effectiveness compared with total root extract [1]: far less effective than the total root extract

O=C1O[C@H]([C@@H](O)CO)C(O)=C1O [Ascorbic acid (vitamin C), Ascorbic acid]
alleviation/reduction of joint pain [2]: 2-5% | improvement in joint sensitivity [2]: 5-10% | Result of treatment, scale of 1-10 [2]: 2

Cc1c(C)c2c(c(C)c1O)CC[C@@](C)(CCC[C@H](C)CCC[C@H](C)CCCC(C)C)O2 [α-Tocopherol (vitamin E), α-Tocopherol]
alleviation/reduction of joint pain [2]: 5% | improvement in joint sensitivity [2]: 10% | Result of treatment, scale of 1-10 [2]: 3.0 | pain [3]: alleviation of pain
